# Source: PubChem BioAssay (NCI)
#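 Compound exposure: 48 hours, 5 concentrations, 96-well plates. TGI denotes the concentration required for complete inhibition of growth.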
# Tests used:
# Assay in all cases: DTP human tumour cell line panel, 48 h
# 786-0 renal = system: 786-0 renal
# A549 NSCLC = system: A549 NSCLC
# ACHN renal = system: ACHN renal
# BT-549 breast = system: BT-549 breast
# CAKI-1 renal = system: CAKI-1 renal
# DU-145 prostate = system: DU-145 prostate
# HCC-2998 colon = system: HCC-2998 colon
# HCT-116 colon = system: HCT-116 colon
# HCT-15 colon = system: HCT-15 colon
# HL-60(TB) leukemia = system: HL-60(TB) leukemia
# HOP-62 NSCLC = system: HOP-62 NSCLC
# HS 578T breast = system: HS 578T breast
# HT29 colon = system: HT29 colon
# IGROV1 ovarian = system: IGROV1 ovarian
# K-562 leukemia = system: K-562 leukemia
# KM12 colon = system: KM12 colon
# LOX IMVI melanoma = system: LOX IMVI melanoma
# M14 melanoma = system: M14 melanoma
# MALME-3M melanoma = system: MALME-3M melanoma
# MCF7 breast = system: MCF7 breast
# MDA-MB-231 breast = system: MDA-MB-231 breast
# MDA-MB-435 = system: MDA-MB-435
# MDA-N = system: MDA-N
# MOLT-4 leukemia = system: MOLT-4 leukemia
# NCI-H226 lung = system: NCI-H226 lung
# NCI-H23 lung = system: NCI-H23 lung
# NCI-H460 lung = system: NCI-H460 lung
# NCI-H522 lung = system: NCI-H522 lung
# NCI/ADR-RES ovarian = system: NCI/ADR-RES ovarian
# OVCAR-3 ovarian = system: OVCAR-3 ovarian
# OVCAR-5 ovarian = system: OVCAR-5 ovarian
# OVCAR-8 ovarian = system: OVCAR-8 ovarian
# PC-3 prostate = system: PC-3 prostate
# RPMI-8226 leukemia = system: RPMI-8226 leukemia
# RXF 393 renal = system: RXF 393 renal
# SF-268 CNS = system: SF-268 CNS
# SF-295 CNS = system: SF-295 CNS
# SF-539 CNS = system: SF-539 CNS
# SK-MEL-2 melanoma = system: SK-MEL-2 melanoma
# SK-MEL-28 melanoma = system: SK-MEL-28 melanoma
# SK-MEL-5 melanoma = system: SK-MEL-5 melanoma
# SN12C renal = system: SN12C renal
# SNB-19 CNS = system: SNB-19 CNS
# SNB-75 CNS = system: SNB-75 CNS
# SR leukemia = system: SR leukemia
# SW-620 colon = system: SW-620 colon
# T-47D breast = system: T-47D breast
# TK-10 renal = system: TK-10 renal
# U251 CNS = system: U251 CNS
# UACC-257 melanoma = system: UACC-257 melanoma
# UACC-62 melanoma = system: UACC-62 melanoma
# UO-31 renal = system: UO-31 renal
# CCRF-CEM leukemia = system: CCRF-CEM leukemia
# COLO 205 colon = system: COLO 205 colon
# EKVX NSCLC = system: EKVX NSCLC
# OVCAR-4 ovarian = system: OVCAR-4 ovarian
# SK-OV-3 ovarian = system: SK-OV-3 ovarian
structure (smiles),measurement,setting,value
CCOC(=O)CC/C(C)=N\n1c(Cc2ccc(Cl)cc2)n[nH]c1=O,TGI,786-0 renal,> 100 µM
same,TGI,A549 NSCLC,> 100 µM
same,TGI,ACHN renal,> 100 µM
same,TGI,BT-549 breast,> 100 µM
same,TGI,CAKI-1 renal,> 100 µM
same,TGI,DU-145 prostate,> 100 µM
same,TGI,HCC-2998 colon,> 100 µM
same,TGI,HCT-116 colon,> 100 µM
same,TGI,HCT-15 colon,> 100 µM
same,TGI,HL-60(TB) leukemia,> 100 µM
same,TGI,HOP-62 NSCLC,> 100 µM
same,TGI,HS 578T breast,> 100 µM
same,TGI,HT29 colon,> 100 µM
same,TGI,IGROV1 ovarian,> 100 µM
same,TGI,K-562 leukemia,> 100 µM
same,TGI,KM12 colon,> 100 µM
same,TGI,LOX IMVI melanoma,> 100 µM
same,TGI,M14 melanoma,> 100 µM
same,TGI,MALME-3M melanoma,> 100 µM
same,TGI,MCF7 breast,> 100 µM
same,TGI,MDA-MB-231 breast,> 100 µM
same,TGI,MDA-MB-435,> 100 µM
same,TGI,MDA-N,> 100 µM
same,TGI,MOLT-4 leukemia,> 100 µM
same,TGI,NCI-H226 lung,> 100 µM
same,TGI,NCI-H23 lung,> 100 µM
same,TGI,NCI-H460 lung,> 100 µM
same,TGI,NCI-H522 lung,> 100 µM
same,TGI,NCI/ADR-RES ovarian,> 100 µM
same,TGI,OVCAR-3 ovarian,> 100 µM
same,TGI,OVCAR-5 ovarian,55.5 µM
same,TGI,OVCAR-8 ovarian,> 100 µM
same,TGI,PC-3 prostate,> 100 µM
same,TGI,RPMI-8226 leukemia,> 100 µM
same,TGI,RXF 393 renal,> 100 µM
same,TGI,SF-268 CNS,> 100 µM
same,TGI,SF-295 CNS,> 100 µM
same,TGI,SF-539 CNS,> 100 µM
same,TGI,SK-MEL-2 melanoma,> 100 µM
same,TGI,SK-MEL-28 melanoma,> 100 µM
same,TGI,SK-MEL-5 melanoma,> 100 µM
same,TGI,SN12C renal,> 100 µM
same,TGI,SNB-19 CNS,> 100 µM
same,TGI,SNB-75 CNS,> 100 µM
same,TGI,SR leukemia,> 100 µM
same,TGI,SW-620 colon,> 100 µM
same,TGI,T-47D breast,> 100 µM
same,TGI,TK-10 renal,> 100 µM
same,TGI,U251 CNS,> 100 µM
same,TGI,UACC-257 melanoma,> 100 µM
same,TGI,UACC-62 melanoma,> 100 µM
same,TGI,UO-31 renal,> 100 µM
CC1=C(C(=O)OCCc2ccc([N+](=O)[O-])cc2)C(c2ccccc2C(F)(F)F)C(C(=O)OC(C)C)=C(C)N1 (stereo not drawn),TGI,786-0 renal,> 100 µM
same,TGI,A549 NSCLC,> 100 µM
same,TGI,ACHN renal,> 100 µM
same,TGI,BT-549 breast,> 100 µM
same,TGI,CAKI-1 renal,> 100 µM
same,TGI,CCRF-CEM leukemia,> 100 µM
same,TGI,COLO 205 colon,16.3 µM
same,TGI,DU-145 prostate,> 100 µM
same,TGI,EKVX NSCLC,6.51 µM
same,TGI,HCC-2998 colon,> 100 µM
same,TGI,HCT-116 colon,> 100 µM
same,TGI,HCT-15 colon,> 100 µM
same,TGI,HOP-62 NSCLC,> 100 µM
same,TGI,HS 578T breast,61.6 µM
same,TGI,HT29 colon,> 100 µM
same,TGI,IGROV1 ovarian,> 100 µM
same,TGI,K-562 leukemia,> 100 µM
same,TGI,KM12 colon,31 µM
same,TGI,LOX IMVI melanoma,> 100 µM
same,TGI,M14 melanoma,16.2 µM
same,TGI,MALME-3M melanoma,28.5 µM
same,TGI,MCF7 breast,> 100 µM
same,TGI,MDA-MB-231 breast,> 100 µM
same,TGI,MDA-MB-435,> 100 µM
same,TGI,MDA-N,> 100 µM
same,TGI,MOLT-4 leukemia,7.95 µM
same,TGI,NCI-H226 lung,21.5 µM
same,TGI,NCI-H23 lung,> 100 µM
same,TGI,NCI-H460 lung,> 100 µM
same,TGI,NCI-H522 lung,7.5 µM
same,TGI,NCI/ADR-RES ovarian,> 100 µM
same,TGI,OVCAR-3 ovarian,> 100 µM
same,TGI,OVCAR-4 ovarian,> 100 µM
same,TGI,OVCAR-5 ovarian,> 100 µM
same,TGI,OVCAR-8 ovarian,> 100 µM
same,TGI,PC-3 prostate,> 100 µM
same,TGI,RPMI-8226 leukemia,> 100 µM
same,TGI,RXF 393 renal,7.34 µM
same,TGI,SF-268 CNS,> 100 µM
same,TGI,SF-295 CNS,> 100 µM
same,TGI,SF-539 CNS,> 100 µM
same,TGI,SK-MEL-2 melanoma,7.16 µM
same,TGI,SK-MEL-28 melanoma,> 100 µM
same,TGI,SK-MEL-5 melanoma,3.09 µM
same,TGI,SK-OV-3 ovarian,30.6 µM
same,TGI,SN12C renal,26.7 µM
same,TGI,SNB-19 CNS,> 100 µM
same,TGI,SNB-75 CNS,> 100 µM
same,TGI,SR leukemia,> 100 µM
same,TGI,SW-620 colon,> 100 µM
same,TGI,T-47D breast,> 100 µM
same,TGI,TK-10 renal,> 100 µM
same,TGI,U251 CNS,> 100 µM
same,TGI,UACC-257 melanoma,> 100 µM
same,TGI,UACC-62 melanoma,36.5 µM
same,TGI,UO-31 renal,> 100 µM
